Values quoted from earlier work in US7541371B2, “Method for treating a motor neuron disease” (Eisai R&D Management Co., Ltd., priority 2006, dated 2009).

Molecular target: T1, serotonin 1A receptor (Rattus norvegicus, UniProt P19327)
T1 construct: mixed with the receptor fraction of the hippocampus; from tissue; host or cells: rat hippocampus
T1 sequence (P19327 1-422): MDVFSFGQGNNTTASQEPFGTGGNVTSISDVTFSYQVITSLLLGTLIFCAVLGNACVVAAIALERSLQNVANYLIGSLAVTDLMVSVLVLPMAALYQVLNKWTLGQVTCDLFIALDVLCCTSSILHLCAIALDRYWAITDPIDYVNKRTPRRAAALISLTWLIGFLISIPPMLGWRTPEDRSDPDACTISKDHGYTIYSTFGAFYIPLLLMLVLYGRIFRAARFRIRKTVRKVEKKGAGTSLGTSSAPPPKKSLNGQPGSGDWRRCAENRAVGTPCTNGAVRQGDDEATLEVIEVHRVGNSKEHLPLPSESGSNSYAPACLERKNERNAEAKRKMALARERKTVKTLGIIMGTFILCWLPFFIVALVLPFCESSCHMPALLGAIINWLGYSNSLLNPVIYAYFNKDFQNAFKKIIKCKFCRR
Settings: rat hippocampus receptor fraction, 0.5 nM [3H]8-hydroxy-dipropylaminotetralin; compounds 7 and 8, WO 99/18077; read-out: 5HT1a; cited from earlier work

**Q.** Which Ki does the source give for `CCN1CCN(c2nc(-c3ccc(OCC(C)(C)O)cc3)cc3sccc23)CC1` [Compound 8, 1-{4-[4-(4-ethylpiperazin-1-yl)thieno[3,2-c]pyridin-6-yl]phenoxy}-2-methylpropan-2-ol] here?
**A.** 54.9 nM
